The record followed here is ChEMBL document CHEMBL1150753, “Antitumor agents, 93. Bruceanol C, a new cytotoxic quassinoid from Brucea antidysenterica” (1988).

SMILES strings stand for the structures. In brackets after ≈: the same amount, converted by molar mass.

Type in all cases: functional
Details in all cases: read-out: ED50 (the source's name)

One assay has as its system KB. The assay is described as follows: Cytotoxicity against human KB cells.
The next assay deals with A549. Description: Cytotoxicity against human A549 cells.
In the next assay the test system is HCT-8. Description: Cytotoxicity against human HCT8 cells.
In the next assay the test system is P388. Description: Cytotoxicity against mouse P388 cells.

For `COC(=O)[C@]12OC[C@]34[C@H]([C@@H](O)[C@@H]1O)[C@@]1(C)[C@H](O)C(=O)C=C(C)[C@@H]1C[C@H]3OC(=O)[C@H](OC(=O)/C=C(\C)C(C)(C)OC(C)=O)[C@@H]24` [Bruceanol C], the EC50 is < 0.04 µg/mL in the assay with KB, 0.48 µg/mL (≈ 0.791 µM) with A549, < 0.4 µg/mL in the assay on HCT-8 and 0.56 µg/mL (≈ 0.923 µM) with P388.
